# Assay results taken from patent publication US20100144688A1, “23-Substituted Derivatives of Lupane-type Pentacyclic Triterpenoids” (ADVANCED LIFE SCIENCES, INC., priority 2008, published 2010).
# What was measured:
# Daoy (glioblastoma) = assay: MTS cell viability assay, Daoy; format: cell-based; settings: 72 h incubation
# Experimental: (§1) Cells were plated, the evening before treatment, for each treatment on 96-well plates (1×10^4 cells/well) in 100 μL volume per well. Analog solutions were prepared by diluting each test compound in DMSO (10 mM) with the appropriate cell growth media for each individual cell line, or in “Universal Media” if several cell lines were to be assayed in parallel, immediately prior to cell treatment. Universal Media consisted of 5 mL sodium pyruvate (100× liquid stock, MediaTech), 5 mL glucose (100×, 45% liquid stock, MediaTech), 5 mL Penicillin/Streptomycin (100× liquid stock, MediaTech), 10 mL sodium bicarbonate (50× liquid stock, MediaTech), 25 mL Fetal Calf Serum, 1.25 mL insulin (4 mg/mL, Gibco) and 449 mL RPMI media with 2 mM L-glutamine for a total volume of 500 mL.
# (§2) Cells were treated by aspirating plating media from each well and adding 80 μL of betulinic acid (control) or each analog solution in serial dilutions to the adherent cells. All treatments were performed in triplicate. Growth media (80 μL) was added to 3 blank wells (no cells) to measure background from the growth media. Growth media alone (no DMSO or test compound) was added to 3 wells containing cells to measure the baseline MTS activity. Vehicle (DMSO) control in serial dilutions, added to cells, was also included to monitor basal toxicity from DMSO. Cells were incubated at 37° C. for 72 h, or 120 h for the OVCAR cell lines. MTS reagent (per 96-well plate) were prepared by combining 2 mL of MTS working solution (Cell Titer Aqueous Non-Radioactive Cell Proliferation Assay, Promega, cat#G1112), 100 μL of 0.92 mg/mL phenazine methosulfate/Dulbecco's PBS and 2.1 mL growth media. MTS reagent (40 μL) was added to each well and incubated at 37° C. for 1.5 to 4 h. Plates were gently shaken by hand until solution in each well appeared homogenous. Absorbances at 490 nm were measured on a Wallac Victor II plate reader at multiple time points following the addition of MTS reagent for each plate. Triplicate absorbance (490 nm) measurements were averaged following background (no cell) subtraction for each drug concentration. Percent Cell Viability was calculated for each drug concentration using the following equation:
# (§3) {[Absorbance(analog treated)]/[Absorbance(DMSO treated)]}×100%
# (§4) Percent viability (y-axis) was plotted against drug concentration (x-axis) and the resulting graph was used to determine the 50% inhibitory concentration (IC50) for each drug.
# (§5) Cytotoxicity dose response for the synthesized triterpenoid derivatives in SK-MEL-2 (melanoma), A-375 (melanoma), Daoy (glioblastoma), LN-229 (glioblastoma), OVCAR-3 (ovarian carcinoma), HT-29 (colon carcinoma), MCF-7 (breast carcinoma) cell lines using the standard MTS assay (described above) is summarized in Table 1.
# SK-MEL-2 (melanoma) = assay: MTS cell viability assay, SK-MEL-2; format: cell-based
# Experimental: as §1, §2, §3, §4, §5
# A-375 (melanoma) = assay: MTS cell viability assay, A-375; format: cell-based
# Experimental: as §1, §2, §3, §4, §5
# MCF-7 (breast carcinoma) = assay: MTS cell viability assay, MCF-7; format: cell-based
# Experimental: as §1, §2, §3, §4, §5
# HT-29 (colon carcinoma) = assay: MTS cell viability assay, HT-29; format: cell-based
# Experimental: as §1, §2, §3, §4, §5
# LN-229 (glioblastoma) = assay: MTS cell viability assay, LN-229; format: cell-based
# Experimental: as §1, §2, §3, §4, §5
# [1] = test system: human colon carcinoma cell lines (Caco-2); settings: Caco-2, at approximately 60 minutes; cited from earlier work
# [2] = test system: murine melanoma B16 cells; settings: cited from earlier work
# [3] = test system: human leukemia HL-60 cells; settings: by decrease in telomerase activity and down-regulation of bcl-2; cited from earlier work
# [4] = test system: OVCAR-3 (ovarian carcinoma); assay: MTS cell viability assay, OVCAR-3; format: cell-based; settings: 120 h for the OVCAR cell lines
# Experimental: as §1
# Cells were treated by aspirating plating media from each well and adding 80 μL of betulinic acid (control) or each analog solution in serial dilutions to the adherent cells. […] Absorbances at 490 nm were measured on a Wallac Victor II plate reader at multiple time points following the addition of MTS reagent for each plate. Triplicate absorbance (490 nm) measurements were averaged following background (no cell) subtraction for each drug concentration. Percent Cell Viability was calculated for each drug concentration using the following equation:
# {[Absorbance(analog treated)]/[Absorbance(DMSO treated)]}×100% […]
# [5] = Homo sapiens, SK-MEL-2, 72 h incubation
# [6] = Homo sapiens, A-375, 72 h incubation
# [7] = Homo sapiens, MCF7, 72 h incubation
# [8] = Homo sapiens, HT-29, 72 h incubation
# [9] = Homo sapiens, LN-229, 72 h incubation
SMILES,"IC50 (Daoy (glioblastoma); Homo sapiens, Daoy) [µM]",IC50 (SK-MEL-2 (melanoma); [5]) [µM],further results
C=C(CO)[C@@H]1CC[C@]2(C(=O)O)CC[C@]3(C)[C@H](CC[C@@H]4[C@@]5(C)CC[C@H](O)C(C)(CO)[C@@H]5CC[C@]43C)[C@@H]12 (stereo partly drawn) [Compound 43a],> 75,> 75,
C=C(C)[C@@H]1CC[C@]2(C=NO)CC[C@]3(C)[C@H](CC[C@@H]4[C@@]5(C)CCC(=NO)C(C)(CO)[C@@H]5CC[C@]43C)[C@@H]12 (stereo partly drawn) [Compound 30],5,3,IC50 (A-375 (melanoma); [6]): 4 µM; IC50 (MCF-7 (breast carcinoma); [7]): < 2 µM; IC50 (HT-29 (colon carcinoma); [8]): 13 µM; IC50 (LN-229 (glioblastoma); [9]): 16 µM
C=C(CO)[C@@H]1CC[C@]2(COC(C)=O)CC[C@]3(C)[C@H](CC[C@@H]4[C@@]5(C)CCC(=O)C(C)(COC(C)=O)[C@@H]5CC[C@]43C)[C@@H]12 (stereo partly drawn) [Compound 40c],56,33,
C=C(C)[C@@H]1CC[C@]2(C(=O)O)CC[C@]3(C)[C@H](CC[C@@H]4[C@@]5(C)CCC(N)C(C)(CO)[C@@H]5CC[C@]43C)[C@@H]12 (stereo partly drawn) [Compound 22],38,36,
C=C(C)[C@@H]1CC[C@]2(CO)CC[C@]3(C)[C@H](CC[C@@H]4[C@@]5(C)CCC(N)C(C)(CO)[C@@H]5CC[C@]43C)[C@@H]12 (stereo partly drawn) [Compound 23],2,2,IC50 (A-375 (melanoma); [6]): 5 µM; IC50 (MCF-7 (breast carcinoma); [7]): 5 µM; IC50 (HT-29 (colon carcinoma); [8]): 6 µM; IC50 (LN-229 (glioblastoma); [9]): 15 µM
C=C(C)[C@@H]1CC[C@]2(C#N)CC[C@]3(C)[C@H](CC[C@@H]4[C@@]5(C)CCC(N)C(C)(CO)[C@@H]5CC[C@]43C)[C@@H]12 (stereo partly drawn) [Compound 37],17,14,
"C=C(C)[C@@H]1CC[C@]2(C(=O)O)CC[C@]3(C)[C@H](CC[C@@H]4[C@@]5(C)CC[C@H](O)C(C)(CO)[C@@H]5CC[C@]43C)[C@@H]12 (stereo partly drawn) [Compound 1, 23-Hydroxybetulinic acid]",> 75,> 75,"intracellular concentration (cellular uptake) [1]: 906.7 μM/mg protein; growth arrest and apoptotic cell death, B16 ([2]; by increase in reactive oxidative species and dissipation of mitochondrial membrane potential): induces growth arrest and apoptotic cell death; potency against murine melanoma B16 cells ([2]; compared with betulinic acid (2)): increased potency; growth arrest and apoptotic cell death, HL-60 [3]: induces growth arrest and apoptotic cell death"
C=C(C=O)[C@@H]1CC[C@]2(COC(C)=O)CC[C@]3(C)[C@H](CC[C@@H]4[C@@]5(C)CCC(=O)C(C)(COC(C)=O)[C@@H]5CC[C@]43C)[C@@H]12 (stereo partly drawn) [Compound 49a],9,5,IC50 (A-375 (melanoma); [6]): 5 µM; IC50 (MCF-7 (breast carcinoma); [7]): 4 µM; IC50 (HT-29 (colon carcinoma); [8]): 5 µM; IC50 (LN-229 (glioblastoma); [9]): 15 µM
"C=C(C)[C@@H]1CC[C@]2(C(=O)O)CC[C@]3(C)[C@H](CC[C@@H]4[C@@]5(C)CCC(=O)C(C)(CO)[C@@H]5CC[C@]43C)[C@@H]12 (stereo partly drawn) [Compound 4, 23-hydroxybetulonic acid, reference compound]",59,33,
C=C(C)[C@@H]1CC[C@]2(CO)CC[C@]3(C)[C@H](CC[C@@H]4[C@@]5(C)CCC(NC(C)=O)C(C)(CO)[C@@H]5CC[C@]43C)[C@@H]12 (stereo partly drawn) [Compound 27],> 75,64,
C=C(C)[C@@H]1CC[C@]2(C#N)CC[C@]3(C)[C@H](CC[C@@H]4[C@@]5(C)CCC(=NOC(C)=O)C(C)(COC(C)=O)[C@@H]5CC[C@]43C)[C@@H]12 (stereo partly drawn) [Compound 35],31,24,
C=C(C)[C@@H]1CC[C@]2(COC(C)=O)CC[C@]3(C)[C@H](CC[C@@H]4[C@@]5(C)CCC(=NO)C(C)(CO)[C@@H]5CC[C@]43C)[C@@H]12 (stereo partly drawn) [Compound 17c],16,16,
C=C(CO)[C@@H]1CC[C@]2(COC(C)=O)CC[C@]3(C)[C@H](CC[C@@H]4[C@@]5(C)CC[C@H](O)C(C)(COC(C)=O)[C@@H]5CC[C@]43C)[C@@H]12 (stereo partly drawn) [Compound 43e],16,16,
C=C(C)[C@@H]1CC[C@]2(CO)CC[C@]3(C)[C@H](CC[C@@H]4[C@@]5(C)CCC(=NOC(C)=O)C(C)(COC(C)=O)[C@@H]5CC[C@]43C)[C@@H]12 (stereo partly drawn) [Compound 15b],34,35,
C=C(C)[C@@H]1CC[C@]2(C=NO)CC[C@]3(C)[C@H](CC[C@@H]4[C@@]5(C)CCC(=NOC(C)=O)C(C)(COC(C)=O)[C@@H]5CC[C@]43C)[C@@H]12 (stereo partly drawn) [Compound 29],14,16,
C=C(CO)[C@@H]1CC[C@]2(C#N)CC[C@]3(C)[C@H](CC[C@@H]4[C@@]5(C)CCC(N)C(C)(CO)[C@@H]5CC[C@]43C)[C@@H]12 (stereo partly drawn) [Compound 44d],73,32,
C=C(C)[C@@H]1CC[C@]2(COC(C)=O)CC[C@]3(C)[C@H](CC[C@@H]4[C@@]5(C)CCC(=O)C(C)(COC(C)=O)[C@@H]5CC[C@]43C)[C@@H]12 (stereo partly drawn) [Compound 38],31,18,
C=C(C)[C@@H]1CC[C@]2(CO)CC[C@]3(C)[C@H](CC[C@@H]4[C@@]5(C)CCC(=O)C(C)(CO)[C@@H]5CC[C@]43C)[C@@H]12 (stereo partly drawn) [Compound 18b],34,> 75,
C=C(CO)[C@@H]1CC[C@]2(C#N)CC[C@]3(C)[C@H](CC[C@@H]4[C@@]5(C)CCC(=NOC(C)=O)C(C)(COC(C)=O)[C@@H]5CC[C@]43C)[C@@H]12 (stereo partly drawn) [Compound 39d],33,14,melting point: 141 to 143 °C
C=C(C)[C@@H]1CC[C@]2(COC(C)=O)CC[C@]3(C)[C@H](CC[C@@H]4[C@@]5(C)CCC(=O)C(C)(CO)[C@@H]5CC[C@]43C)[C@@H]12 (stereo partly drawn) [Compound 18c],16,29,
C=C(CO)[C@@H]1CC[C@]2(C(=O)O)CC[C@]3(C)[C@H](CC[C@@H]4[C@@]5(C)CCC(N)C(C)(CO)[C@@H]5CC[C@]43C)[C@@H]12 (stereo partly drawn) [Compound 44a],> 75,> 75,
"C=C(C)[C@@H]1CC[C@]2(CO)CC[C@]3(C)[C@H](CC[C@@H]4[C@@]5(C)CC[C@H](O)C(C)(CO)[C@@H]5CC[C@]43C)[C@@H]12 (stereo partly drawn) [Compound 5, 23-hydroxybetulin, reference compound]",65,> 75,
"C=C(C)[C@@H]1CC[C@]2(C(=O)O)CC[C@]3(C)[C@H](CC[C@@H]4[C@@]5(C)CC[C@H](O)C(C)(C)[C@@H]5CC[C@]43C)[C@@H]12 [Compound 2, betulinic acid, reference compound]",,,IC50 (A-375 (melanoma); 72 h incubation): 51 µM; IC50 (Daoy (glioblastoma)): 31 µM; IC50 (SK-MEL-2 (melanoma); 72 h incubation): 33 µM; IC50 (MCF-7 (breast carcinoma); 72 h incubation): 50 µM; IC50 (HT-29 (colon carcinoma); 72 h incubation): 37 µM; IC50 [4]: 59 µM; IC50 (LN-229 (glioblastoma); 72 h incubation): 61 µM
C=C(C)[C@@H]1CC[C@]2(COC(C)=O)CC[C@]3(C)[C@H](CC[C@@H]4[C@@]5(C)CCC(NC(C)=O)C(C)(COC(C)=O)[C@@H]5CC[C@]43C)[C@@H]12 (stereo partly drawn) [Compound 25],38,36,
C=C(CO)[C@@H]1CC[C@]2(CO)CC[C@]3(C)[C@H](CC[C@@H]4[C@@]5(C)CCC(N)C(C)(CO)[C@@H]5CC[C@]43C)[C@@H]12 (stereo partly drawn) [Compound 44b],18,17,
